Measurements: ChEMBL document CHEMBL5143743, “Novel Thioxothiazolo[3,4-a]quinazolin-5(4H)-one Derivatives as BKCa Channel Activators for Urinary Incontinence” (ACS Med Chem Lett, 2022)
Calls of active or inactive are those of the source. The rule behind the calls is not given here.

Tests used:
AD293 [1] = assay: Activation of human Slo G803D/N806K mutant expressed in human AD293 cells assessed as initial velocity of channel activation at 6 uM measured at 2 secs interval for 4 secs by FluxOR based fluorescence assay; assay type: cell-based; conditions: filed as activator, time 4.0 sec
AD293 [2] = assay: Activation of human Slo G803D/N806K mutant expressed in human AD293 cells assessed as increase in channel activity by measuring change in relative fluorescence unit at 6 uM measured at 2 secs interval for 80 secs by FluxOR based fluorescence assay; assay type: cell-based; conditions: filed as activator, time 80.0 sec
[3] = (§1) Activation of human Slo G803D/N806K mutant expressed in human AD293 cells measured at 2 secs interval for 120 secs by FluxOR based fluorescence assay; assay type: cell-based
AD293 [4] = assay: Activation of human Slo G803D/N806K mutant expressed in human AD293 cells assessed as increase in initial velocity at 5 uM measured at 2 secs interval for 4 secs by FluxOR based fluorescence assay; assay type: cell-based; conditions: filed as activator, time 4.0 sec
AD293 [5] = assay: as §1; assay type: cell-based; conditions: filed as activator, time 120.0 sec, DDE = dose-dependent effect
[6] = Stability in human liver microsomes assessed as parent compound remaining at 1 uM measured after 30 mins in presence of NADPH regeneration system by LC-MS/MS analysis; assay type: ADME, Microsome; conditions: read-out: Stability
AD293 [7] = assay: Activation of human Slo G803D/N806K mutant expressed in human AD293 cells assessed as increase in initial velocity at 1 uM measured at 2 secs interval for 120 secs by FluxOR based fluorescence assay; assay type: cell-based; conditions: filed as activator, time 120.0 sec
[8] = molecular target: Calcium-activated potassium channel subunit alpha-1 (Rattus norvegicus) (UniProt Q62976); assay: Activation of rat Slo expressed in Xenopus laevis oocytes at 10 uM with 100 mV holding potential by patch-clamp electrophysiological method; assay type: cell-based; conditions: Oocyte, filed as activator
[9] = molecular target: Calcium-activated potassium channel subunit alpha-1 (Rattus norvegicus) (UniProt Q62976); assay: Activation of rat Slo expressed in Xenopus laevis oocytes assessed as shift in voltage at half activation at 10 uM with 100 mV holding potential by patch-clamp electrophysiological method; assay type: cell-based; conditions: Oocyte, filed as activator
[10] = molecular target: Calcium-activated potassium channel subunit alpha-1 (Rattus norvegicus) (UniProt Q62976); assay: Activation of rat Slo expressed in Xenopus laevis oocytes assessed as increase in maximum conductance at 10 uM with 100 mV holding potential by patch-clamp electrophysiological method relative to control; assay type: cell-based; conditions: Oocyte, filed as activator
[11] = molecular target: Calcium-activated potassium channel subunit alpha-1 (Rattus norvegicus) (UniProt Q62976); assay: Activation of rat Slo expressed in Xenopus laevis oocytes assessed as intracellular shift in voltage at half activation at 10 uM with 100 mV holding potential by patch-clamp electrophysiological method; assay type: cell-based; conditions: Oocyte, filed as activator
[12] = molecular target: Calcium-activated potassium channel subunit alpha-1 (Rattus norvegicus) (UniProt Q62976); assay: Activation of rat Slo expressed in Xenopus laevis oocytes assessed as increase in intracellular maximum conductance at 10 uM with 100 mV holding potential by patch-clamp electrophysiological method relative to control; assay type: cell-based; conditions: Oocyte, filed as activator
[13] = molecular target: Calcium-activated potassium channel subunit alpha-1 (Rattus norvegicus) (UniProt Q62976); assay: Activation of rat Slo expressed in Xenopus laevis oocytes assessed as shortened channel opening 10 uM with 100 mV holding potential by patch-clamp electrophysiological method; assay type: cell-based; conditions: Oocyte, filed as activator
[14] = molecular target: Calcium-activated potassium channel subunit alpha-1 (Rattus norvegicus) (UniProt Q62976); assay: Activation of rat Slo expressed in Xenopus laevis oocytes assessed as delayed channel closing 10 uM with 100 mV holding potential by patch-clamp electrophysiological method; assay type: cell-based; conditions: Oocyte, filed as activator
[15] = Half life in Sprague-Dawley rat at 5 mg/kg, iv by LC-MS analysis; assay type: ADME, organism-based; conditions: in vivo
[16] = AUC (0 to 8 hrs) in Sprague-Dawley rat at 5 mg/kg, iv by LC-MS analysis; assay type: ADME, organism-based; set-up: time < 8 hr, dose 5 mg/kg, route iv; conditions: in vivo
[17] = AUC (infinity) in Sprague-Dawley rat at 5 mg/kg, iv by LC-MS analysis; assay type: ADME, organism-based; set-up: time infinity, dose 5 mg/kg, route iv; conditions: in vivo
[18] = Clearance in Sprague-Dawley rat at 5 mg/kg, iv by LC-MS analysis; assay type: ADME, organism-based; conditions: in vivo
[19] = Volume of distribution at steady state in Sprague-Dawley rat at 5 mg/kg, iv by LC-MS analysis; assay type: ADME, organism-based; conditions: in vivo, read-out: Vdss
[20] = Tmax in Sprague-Dawley rat at 10 mg/kg, po by LC-MS analysis; assay type: ADME, organism-based; conditions: in vivo
[21] = Cmax in Sprague-Dawley rat at 10 mg/kg, po by LC-MS analysis; assay type: ADME, organism-based; set-up: dose 10 mg/kg, route po; conditions: in vivo
[22] = Half life in Sprague-Dawley rat at 10 mg/kg, po by LC-MS analysis; assay type: ADME, organism-based; conditions: in vivo
[23] = AUC (0 to 8 hrs) in Sprague-Dawley rat at 10 mg/kg, po by LC-MS analysis; assay type: ADME, organism-based; set-up: time < 8 hr, dose 10 mg/kg, route po; conditions: in vivo
[24] = AUC (infinity) in Sprague-Dawley rat at 10 mg/kg, po by LC-MS analysis; assay type: ADME, organism-based; set-up: time infinity, dose 10 mg/kg, route po; conditions: in vivo
[25] = Oral bioavailability in Sprague-Dawley rat at 10 mg/kg by LC-MS analysis; assay type: ADME, organism-based; conditions: in vivo
[26] = Protein binding in human plasma at 5 uM measured after 4 hrs by LC-MS/MS analysis; assay type: ADME, cell-free; conditions: read-out: PPB
[27] = Protein binding in rat plasma at 5 uM measured after 4 hrs by LC-MS/MS analysis; assay type: ADME, cell-free; conditions: read-out: PPB
Rattus norvegicus [28] = assay: Inhibition of overactive bladder activity in spontaneously hypertensive rat assessed as reduction in voiding frequency at 10 mg/kg, po measured after 3 hrs; assay type: functional, organism-based
Rattus norvegicus [29] = assay: Inhibition of overactive bladder activity in spontaneously hypertensive rat assessed as reduction in voiding frequency at 50 mg/kg, po measured after 3 hrs relative to control; assay type: functional

Calcium-activated potassium channel subunit alpha-1 (Rattus norvegicus), sequence (Q62976 whole entry): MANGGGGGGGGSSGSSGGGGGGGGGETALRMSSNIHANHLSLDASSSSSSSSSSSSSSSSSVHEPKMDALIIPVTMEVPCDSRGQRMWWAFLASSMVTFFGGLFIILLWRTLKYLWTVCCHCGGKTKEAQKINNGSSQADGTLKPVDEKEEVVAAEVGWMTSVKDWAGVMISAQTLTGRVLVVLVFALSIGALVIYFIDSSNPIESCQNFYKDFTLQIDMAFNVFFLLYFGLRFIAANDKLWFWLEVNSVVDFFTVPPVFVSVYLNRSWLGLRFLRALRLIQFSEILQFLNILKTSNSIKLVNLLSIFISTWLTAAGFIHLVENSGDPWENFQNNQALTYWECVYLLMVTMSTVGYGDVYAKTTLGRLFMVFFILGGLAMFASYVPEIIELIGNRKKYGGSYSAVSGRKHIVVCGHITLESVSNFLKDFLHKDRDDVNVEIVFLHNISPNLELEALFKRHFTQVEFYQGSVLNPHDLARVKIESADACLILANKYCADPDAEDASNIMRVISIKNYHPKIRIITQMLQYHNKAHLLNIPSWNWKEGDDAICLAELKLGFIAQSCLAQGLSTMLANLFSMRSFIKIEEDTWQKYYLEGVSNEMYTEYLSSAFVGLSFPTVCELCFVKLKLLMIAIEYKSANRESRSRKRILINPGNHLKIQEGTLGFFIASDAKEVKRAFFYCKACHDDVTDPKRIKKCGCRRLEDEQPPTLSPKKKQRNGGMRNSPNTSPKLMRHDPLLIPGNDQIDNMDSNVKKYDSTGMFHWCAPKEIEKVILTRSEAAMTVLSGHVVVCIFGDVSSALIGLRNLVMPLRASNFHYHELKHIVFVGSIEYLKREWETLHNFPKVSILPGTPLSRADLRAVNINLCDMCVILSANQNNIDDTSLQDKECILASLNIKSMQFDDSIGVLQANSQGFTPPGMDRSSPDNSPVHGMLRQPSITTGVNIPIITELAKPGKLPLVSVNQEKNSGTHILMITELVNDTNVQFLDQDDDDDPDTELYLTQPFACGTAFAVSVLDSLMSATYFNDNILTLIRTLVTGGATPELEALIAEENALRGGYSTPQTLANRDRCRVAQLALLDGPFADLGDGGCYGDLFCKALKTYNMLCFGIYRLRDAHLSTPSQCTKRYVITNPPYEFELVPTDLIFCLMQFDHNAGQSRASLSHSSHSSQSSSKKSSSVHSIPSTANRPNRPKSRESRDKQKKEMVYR

O=C(Nc1ccccc1)c1sc(=S)n2c1[nH]c(=O)c1ccc(Br)cc12
V0 (AD293 [1]): 0.56 s⁻¹
Activity (AD293 [2]): 1.25 RFU

O=C(Nc1cccc(O)c1)c1sc(=S)n2c1[nH]c(=O)c1cc(Br)ccc12
V0 (AD293 [1]): 4.03 s⁻¹
EC50 [3]: 11.2 µM
Activity (AD293 [2]): 4.88 RFU

COc1cccc(NC(=O)c2sc(=S)n3c2[nH]c(=O)c2cc(Br)ccc23)c1
V0 (AD293 [1]): 6 s⁻¹
EC50 [3]: 6.6 µM
Activity (AD293 [2]): 3.35 RFU

O=C(NCc1ccccc1)c1sc(=S)n2c1[nH]c(=O)c1ccccc12
V0 (AD293 [1]): 0.26 s⁻¹
Activity (AD293 [2]): 1.1 RFU

Cc1cccc(NC(=O)c2sc(=S)n3c2[nH]c(=O)c2cc(Br)ccc23)c1
V0 (AD293 [1]): 9.77 s⁻¹
EC50 [3]: 5.74 µM
Activity (AD293 [2]): 4.98 RFU

O=C(Nc1cc(C(F)(F)F)cc(C(F)(F)F)c1)c1sc(=S)n2c1[nH]c(=O)c1cc(Br)ccc12
V0 (AD293 [1]): 2.08 s⁻¹
EC50 [3]: 17.3 µM
Activity (AD293 [2]): 2.28 RFU

Cc1ccc2c(c1)c(=O)[nH]c1c(C(=O)Nc3ccccc3)sc(=S)n12
V0 (AD293 [1]): 0.32 s⁻¹
Activity (AD293 [2]): 1.16 RFU

NC(=O)c1sc(=S)n2c1[nH]c(=O)c1ccccc12
V0 (AD293 [1]): 0.32 s⁻¹
Activity (AD293 [2]): 0.96 RFU

FC(F)(F)c1cc(NC(=S)Nc2ccc(Br)cc2-c2nnn[nH]2)cc(C(F)(F)F)c1
V0 (AD293 [1]): 1.63 s⁻¹
EC50 [3]: 14.9 µM
Activity (AD293 [2]): 1.86 RFU

O=C(Nc1ccccc1)c1sc(=S)n2c1[nH]c(=O)c1cc(Cl)ccc12
V0 (AD293 [1]): 0.38 s⁻¹
Activity (AD293 [2]): 1.18 RFU

O=C(Nc1cccc(Cl)c1)c1sc(=S)n2c1[nH]c(=O)c1cc(Br)ccc12
V0 (AD293 [1]): 16.1 s⁻¹
EC50 [3]: 4.85 µM
Activity (AD293 [2]): 3.56 RFU

O=C(Nc1cccc(C(F)(F)F)c1)c1sc(=S)n2c1[nH]c(=O)c1cc(Br)ccc12
V0 (AD293 [1]): 16.8 s⁻¹
Activity (AD293 [4]): Active
EC50 [3]: 2.89 µM
Activity (AD293 [5]): Dde
Activity (AD293 [2]): 3.35 RFU
remaining at 0.5 h, 1 µM [6]: 76%
Activity (AD293 [7]): Active
Activity [8]: Active
delta(V1/2) [9]: 42.6 mV
fold change (FC) [10]: 1.5
delta(V1/2) [11]: 7.5 mV
fold change (FC) [12]: 1.3
Activity [13]: Active
Activity [14]: Active
half-life [15]: 6.59 h
AUC [16]: 26.8 uM.hr/ml
AUC [17]: 30.63 uM.hr/ml
clearance [18]: 4.5 mL/min/kg
Vd [19]: 1.83 L/kg
Tmax [20]: 6.67 h
Cmax [21]: 1190 ng/mL
half-life [22]: 8.5 h
AUC [23]: 13.64 uM.hr/ml
AUC [24]: 17.2 uM.hr/ml
bioavailability [25]: 25.4%
fraction unbound at 4 h, 5 µM [26]: < 0.03
fraction unbound at 4 h, 5 µM [27]: < 0.03
inhibition (Rattus norvegicus [28]): Active
inhibition in vivo at 50 mg/kg (Rattus norvegicus [29]): 33%

Cc1ccc2c(=O)[nH]c3c(C(=O)Nc4ccccc4)sc(=S)n3c2c1
V0 (AD293 [1]): 0.23 s⁻¹
Activity (AD293 [2]): 1.06 RFU

O=C(Nc1cccc(F)c1)c1sc(=S)n2c1[nH]c(=O)c1cc(Br)ccc12
V0 (AD293 [1]): 12.6 s⁻¹
EC50 [3]: 1.14 µM
Activity (AD293 [2]): 2.85 RFU
remaining at 0.5 h, 1 µM [6]: 56%

O=C(Nc1cccc(OC(F)(F)F)c1)c1sc(=S)n2c1[nH]c(=O)c1cc(Br)ccc12
V0 (AD293 [1]): 14.8 s⁻¹
EC50 [3]: 3.82 µM
Activity (AD293 [2]): 4.37 RFU

Cc1ccccc1NC(=O)c1sc(=S)n2c1[nH]c(=O)c1cc(Br)ccc12
V0 (AD293 [1]): 9.4 s⁻¹
EC50 [3]: 4.6 µM
Activity (AD293 [2]): 3.68 RFU

O=C(Nc1ccccc1)c1sc(=S)n2c1[nH]c(=O)c1ccc(Cl)cc12
V0 (AD293 [1]): 0.84 s⁻¹
Activity (AD293 [2]): 1.56 RFU

O=C(Nc1ccccc1)c1sc(=S)n2c1[nH]c(=O)c1cc(Br)ccc12
V0 (AD293 [1]): 5.51 s⁻¹
EC50 [3]: 12.3 µM
Activity (AD293 [2]): 3.83 RFU

O=C(O)c1sc(=S)n2c1[nH]c(=O)c1ccccc12
V0 (AD293 [1]): 0.38 s⁻¹
EC50 [3]: 12.7 µM
Activity (AD293 [2]): 1.38 RFU

O=C(Nc1ccccc1)c1sc(=S)n2c1[nH]c(=O)c1ccccc12
V0 (AD293 [1]): 0.42 s⁻¹
Activity (AD293 [2]): 1.03 RFU

Cc1ccc(NC(=O)c2sc(=S)n3c2[nH]c(=O)c2cc(Br)ccc23)cc1
V0 (AD293 [1]): 0.71 s⁻¹
Activity (AD293 [2]): 1.41 RFU
